The nature of data set [1]: AUC (0 to t) in fasted Sprague-Dawley rat at 24 mg/kg, po by LC-MS/MS analysis. Conditions: in vivo. It counts as ADME, organism-based.
The nature of data set [2]: Stability of compound at pH 4.0 assessed as change in purity at 1 mg/ml incubated for 4 hrs by HPLC analysis. It counts as physicochemical. The settings on record: buffer, pH 4, 4 h.
The nature of data set [3]: Stability of compound at pH 6.8 assessed as change in purity at 1 mg/ml incubated for 24 hrs by HPLC analysis. The data set is classed as physicochemical. The settings on record: buffer, pH 6.8, 24 h.
Data set [4] can be described thus: Stability of compound at pH 1.5 assessed as change in purity at 1 mg/ml incubated for 12 hrs by HPLC analysis. It counts as physicochemical. The settings on record: buffer, pH 1.5, 12 h.
Data set [5] is described as follows: Cmax in fasted Sprague-Dawley rat at 24 mg/kg, po by LC-MS/MS analysis. The data set is classed as ADME, organism-based. The settings on record: in vivo.
A short description of data set [6]: Stability of compound at pH 6.8 assessed as change in purity at 1 mg/ml incubated for 12 hrs by HPLC analysis. The data set is classed as physicochemical. The settings on record: buffer, pH 6.8, 12 h.
Data set [7] is described as follows: Stability of compound at pH 1.5 assessed as change in purity at 1 mg/ml incubated for 4 hrs by HPLC analysis. It counts as physicochemical. Conditions: buffer, pH 1.5, 4 h.
Data set [8] in a line: Stability of compound at pH 4.0 assessed as change in purity at 1 mg/ml incubated for 12 hrs by HPLC analysis. Conditions: buffer, pH 4, 12 h. It counts as physicochemical.
A short description of data set [9]: Stability of compound at pH 4.0 assessed as change in purity at 1 mg/ml incubated for 24 hrs by HPLC analysis. It counts as physicochemical. Conditions: buffer, pH 4, 24 h.
A short description of data set [10]: Stability of compound at pH 6.8 assessed as change in purity at 1 mg/ml incubated for 4 hrs by HPLC analysis. The data set is classed as physicochemical. Conditions: buffer, pH 6.8, 4 h.
Data set [11] can be described thus: Stability of compound at pH 1.5 assessed as change in purity at 1 mg/ml incubated for 24 hrs by HPLC analysis. The data set is classed as physicochemical. Conditions: buffer, pH 1.5, 24 h.
Data set [12] concerns Mammarenavirus choriomeningitidis. The data set is described as follows: In vivo antiviral activity against LCMV infected in C57BL/6-Prf1tm1Sdz/J mouse assessed as animal survival at 300 mg/kg, po qd treated for 7 days. It counts as functional, organism-based. Conditions: time 7.0 day.
Data set [13] shares this test system. The data set is described as follows: In vivo antiviral activity against LCMV infected in C57BL/6-Prf1tm1Sdz/J mouse assessed as improvement in lymphocytes percentage at 300 mg/kg, po qd treated for 7 days. It counts as functional, organism-based. The settings on record: time 7.0 day.
For data set [14] the test system is unchanged. Put plainly: In vivo antiviral activity against LCMV infected in C57BL/6-Prf1tm1Sdz/J mouse assessed as improvement in platelet count at 300 mg/kg, po qd treated for 7 days. It counts as functional, organism-based. Conditions: time 7.0 day.
The test system is the same in data set [15]. Put plainly: In vivo antiviral activity against LCMV infected in C57BL/6-Prf1tm1Sdz/J mouse assessed as improvement in body weight loss at 300 mg/kg, po qd treated for 7 days. It counts as functional, organism-based. Conditions: time 7.0 day.
Data set [16] can be described thus: Cmax in fasted Sprague-Dawley rat at 16.5 mg/kg, po by LC-MS/MS analysis. The data set is classed as ADME, organism-based. Conditions: in vivo.
The nature of data set [17]: AUC (0 to t) in fasted Sprague-Dawley rat at 16.5 mg/kg, po by LC-MS/MS analysis. The data set is classed as ADME, organism-based. Conditions: in vivo.
The nature of data set [18]: Oral bioavailability in fasted Cynomolgus monkey administered orally by LC-MS/MS analysis. It counts as ADME, organism-based, Macaca fascicularis. The settings on record: in vivo.
Data set [19] in a line: Cmax in fasted Sprague-Dawley rat at 15.5 mg/kg, po by LC-MS/MS analysis. Conditions: in vivo. It counts as ADME, organism-based.
A short description of data set [20]: AUC (0 to t) in fasted Sprague-Dawley rat at 15.5 mg/kg, po by LC-MS/MS analysis. The data set is classed as ADME, organism-based. The settings on record: in vivo.
A short description of data set [21]: Cmax in fasted Sprague-Dawley rat at 17.5 mg/kg, po by LC-MS/MS analysis. The data set is classed as ADME, organism-based. The settings on record: in vivo.
The nature of data set [22]: AUC (0 to t) in fasted Sprague-Dawley rat at 17.5 mg/kg, po by LC-MS/MS analysis. The data set is classed as ADME, organism-based. Conditions: in vivo.

Calls of active or inactive are those of the source. The rule behind the calls is not given here.

As usually defined, the AUC(0-t) is exposure summed from dosing to a finite time, without extrapolation to infinity. The Cmax is the maximum level reached in the sampled fluid or tissue. For the compound `CC(C)C(=O)OC[C@@]1(F)O[C@@H](n2ccc(=O)n(COC(=O)[C@@H]3CCCN3)c2=O)[C@H](OC(=O)C(C)C)[C@@H]1OC(=O)C(C)C.Cl`, in data set [1], the AUC(0-t) worked out at 7590 ng·h/mL. For the same compound, the Activity in data set [2] was -35.2%; in data set [3] it was -30.6%; in [4], -4.1%; in data set [6] it was -30.5%; in data set [7] it was -1.3%; in data set [8], -62.4%. Besides, the Activity was -84.8% in data set [9], -27.6% in [10] and -7.9% in [11]. Further, the Cmax in data set [5] is 1370 ng/mL.

Turning to `NC(=O)c1nc(F)cnc1O`, the outcome in data set [12], in data set [13], in [14] and in [15] was inactive.

In data set [16], `CCOC(=O)OCn1c(=O)ccn([C@@H]2O[C@](F)(COC(=O)C(C)C)[C@@H](O)[C@H]2O)c1=O` yielded a Cmax of 2440 ng/mL. In data set [17], this compound gave an AUC(0-t) of 15800 ng·h/mL.

As for `CCC(=O)OC[C@@]1(F)O[C@@H](n2ccc(=O)n(COC(=O)c3cccnc3)c2=O)[C@H](OC(=O)CC)[C@@H]1OC(=O)CC`, the Activity in data set [2] is given as 0%; in data set [3] it was -9.7%; in data set [4], -5.3%; in data set [6], -4.9%; in data set [7], -1.9%; in data set [8], -0.1%. The Activity in data set [9] is reported as -0.1%; in [10], -1.9%; in [11], -9.8%.

Regarding `CC(C)C(=O)OC[C@@]1(F)O[C@@H](n2ccc(=O)n(COC(=O)[C@@H](N)C(C)C)c2=O)[C@H](OC(=O)C(C)C)[C@@H]1OC(=O)C(C)C.Cl`, the AUC(0-t) in data set [1] turned out to be 11700 ng·h/mL. Moreover, the Activity in data set [2] was -0.6%; in [3], -98.1%; in data set [4], -2.7%; in data set [6], -98.1%; in data set [7] it was -0.9%; in data set [8], -1.2%. The Activity is recorded as -2.1% in [9], -90.7% in data set [10] and -5.2% in [11]. Moreover, in [5], the highest level (Cmax) was 1640 ng/mL.

Turning to `CC(C)C(=O)OCn1c(=O)ccn([C@@H]2O[C@](F)(COC(=O)C(C)C)[C@@H](OC(=O)C(C)C)[C@H]2OC(=O)C(C)C)c1=O`, the Activity in [2] is 0%; in [3], -1.8%; in data set [4] it was -3.7%; in data set [6], -0.4%; in data set [7] it was -1.5%; in data set [8], 0%. Moreover, the results for the Activity in data set [9], in [10] and in [11] were 0%, 0% and -10.8%, respectively.

Regarding `CC(C)C(=O)O[C@H]1[C@H](n2ccc(=O)n(COC(=O)c3cccnc3)c2=O)O[C@](F)(COC(=O)c2cccnc2)[C@H]1OC(=O)C(C)C`, the Activity in data set [2] is on record as -0.6%; in data set [3], -15.9%; in data set [4] it was -4.8%; in data set [6], -8.1%; in data set [7], -2.8%; in [8] it was -0.8%. The Activity in data set [9] is reported as -0.8%; in [10] it was -3.4%; in data set [11], -7.8%. In addition, in data set [18], the bioavailability is 102%.

For the compound `CCOC(=O)n1c(=O)ccn([C@@H]2O[C@](F)(COC(=O)C(C)C)[C@@H](O)[C@H]2O)c1=O`, the concentration in [19] peaked (Cmax) at 569 ng/mL. In data set [20], this compound displayed an AUC(0-t) of 4650 ng·h/mL.

Regarding `CC(=O)OCCOC(=O)n1c(=O)ccn([C@@H]2O[C@](F)(COC(=O)C(C)C)[C@@H](O)[C@H]2O)c1=O`, in data set [21], the Cmax came to 915 ng/mL. For the same compound, the AUC(0-t) in data set [22] was 4300 ng·h/mL.
